Patent US9458427B2, “IFNγR2 compositions and methods of inhibiting neuronal cell death” (Case Western Reserve University, priority 2009, dated 2016)
Ends that are not written are not given here.

Key:
[1] = system: organotypic hippocampal slice cultures; assay: Neuronal cell death in organotypic hippocampal slice cultures (PI uptake, Nissl staining); type: cell-based; conditions: for Suppression of oligomeric Aβ-induced neuronal loss (Nissl staining): peptide co-applied with oligomeric Aβ; for Prevention of oligomeric Aβ-induced PI uptake: peptide co-applied with oligomeric Aβ (500 nM), after 24-h treatment
Method: (§1) Organotypic hippocampal slice cultures were prepared as described previously. Briefly, hippocampal slice cultures were prepared using 7-10-day-old mouse pups. Slices were cut at 400 μm on a Mcllwain tissue chopper, transferred to Millicell membrane inserts ([…]; Millipore), and placed in 6-well culture plates. The culture medium consisted of basal Eagle's medium with Earle's balanced salt solution, 20% heat-inactivated horse serum, enriched with 5.6 mM glucose. The medium was changed every other day. The effect of oligomeric Ab (500 nM) was tested in the slices that had been maintained for 11-14 days in vitro. Aβ oligomer or reversed sequence of Aβ1-42 control peptide (Aβ42-1) was added to cultures in serum-free medium and, after the treatment, the hippocampal slices were rinsed twice in ice-cold phosphate-buffered saline (PBS), and then harvested by removing the Millicell membrane insert.
To determine neuronal cell death in the hippocampal slices, PI (5 μg/ml) was added to the slice culture medium. Images were acquired through an AxioCam camera on an Axiovert 200M microscope (Zeiss, Oberkochen, Germany). Fluorescent intensity was measured using Image J (NIH, Bethesda, Md., USA). Hematoxylin and eosin (H&E) and Niss1 staining was also performed for routine histochemical and morphological analyses.

[2] = system: hippocampal slice cultures; assay: Cell permeability of FITC-tagged peptides in hippocampal slice cultures; type: cell-based, mouse; conditions: after 24-h treatment
Text: In this study, in addition to utilizing Bax knockout (KO) mice, we utilized BIP to examine the role of Bax in oligomeric Aβ-induced neurotoxicity. BIP used in this study consists of five amino acids, VPTLK, a sequence that is known to inhibit Bax activation. […] Both peptides were tagged with fluorescein isothiocyanate (FITC) so that intracellular delivery can be tracked by FITC signal.

[3] = system: Bim, Bcl-2, Bax, caspase-3; assay: Western blot analysis of Bim, Bcl-2, Bax and cleaved caspase-3 in hippocampal slice cultures; type: cell-based, mouse
Method: as §1
The protein concentration was determined by BCA assay (Pierce, Rockford, Ill., USA). The extracted proteins were separated on 10 or 12% SDS-polyacrylamide gel and transferred onto polyvinylidene difluoride membranes. The blots were blocked with 10% non-fat milk in TBS-T for 1 h at room temperature, and then treated with primary antibodies diluted with 1% non-fat milk and incubated overnight at 4° C. The following antibodies were used for western blot analysis: anti-caspase-3 (1:1000; Santa Cruz Biotechnology, Santa Cruz, Calif., USA), anti-Bim (1:1000; Stressgen, Farmingdale, N.Y., USA), anti-Bcl-2 (1:1000; Stressgen) and 6A7 (conformational specific Bax antibody) (1:1000; BD Pharmingen, San Diego, Calif., USA).

Bax = target: T1, Bax (Mus musculus, UniProt Q07813); assay: Immunocytochemistry with 6A7 antibody (active Bax) in hippocampal slice cultures; type: cell-based
T1 construct: from tissue; host or cells: mouse hippocampal slice culture
T1 sequence (Q07813 whole entry): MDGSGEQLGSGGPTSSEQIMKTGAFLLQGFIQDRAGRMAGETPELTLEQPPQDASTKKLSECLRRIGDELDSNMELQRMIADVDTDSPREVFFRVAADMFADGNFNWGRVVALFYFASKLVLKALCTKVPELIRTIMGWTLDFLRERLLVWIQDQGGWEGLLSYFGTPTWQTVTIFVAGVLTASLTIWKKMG
Method: as §1
Cultured hippocampal slices were rinsed with icecold PBS once and fixed for 2 h with 4% paraformaldehayde in 0.1M PBS. After washing with PBS, sections were permeabilized overnight with PBS containing 0.2% Triton X-100. At the end of the permeabilization blocking solution, 10% normal goat serum in PBS was applied for 4 h at room temperature. After washing with PBS, primary antibody was added and incubated for 24-48 h at 4° C. […] Images were then analyzed with the Axiovision software (Zeiss).

[4] = system: C57BL6/J mice hippocampus; assay: Intrahippocampal injection of oligomeric Aβ in mice; type: in vivo, mouse
Method: C57BL6/J mice (The Jackson Laboratories; 2-3-month-old) were anesthetized with pentobarbital and placed in a stereotaxic frame. Injection was made using a 10-μl microsyringe (Hamilton, Reno, Nev., USA). […] Control animals were prepared identically and injected with the same volume and concentration of Aβ42-1 in PBS. Injections were made at stereotaxic coordinates from bregma; antereoposterior (AP)=2.3 mm, mediolateral (ML)=2.5 mm and doroventral (DV)=−2.5 mm according to a previous report. This corresponds to a site in the dorsal hippocampus in the apical dendritic zones of the CA1 region near the hippocampal fissure. Mice were killed 10 or 20 days after injection, brains dissected out, fixed in 10% buffered-formalin and paraffin-embedded. For brain tissue sections, 6-μm-thick serial sections were cut, mounted onto slides and rehydrated according to standard protocols.
Cultured hippocampal slices were rinsed with icecold PBS once and fixed for 2 h with 4% paraformaldehayde in 0.1M PBS. After washing with PBS, sections were permeabilized overnight with PBS containing 0.2% Triton X-100. At the end of the permeabilization blocking solution, 10% normal goat serum in PBS was applied for 4 h at room temperature. After washing with PBS, primary antibody was added and incubated for 24-48 h at 4° C. After thorough washing of the sections in PBS, a secondary antibody labeled with either Alexa Fluor (Life Technologies, Grand Island, N.Y., USA) 488 or 568 (1:300) was added and incubated for 4 h at room temperature. All of the experiments contained at least one sample incubated without a primary antibody to exclude non-specific signal. Nuclei were visualized with DAPI. Images were acquired through an AxioCam camera on an Axiovert 200M microscope (Zeiss). Images were then analyzed with the Axiovision software (Zeiss).
Detection of 3′-OH termini of DNA strand breaks was performed using in situ cell death detection kit (Roche). Briefly, the tissue sections were treated with proteinase K (20 μg/ml in 10 mmol/l Tris-HCl, pH 7.4) for 30 min at 37° C. after rehydration. After rinsing with PBS, TUNEL reaction mixture containing terminal deoxynucleotidyl transferase and fluorescence-labeled nucleotide was applied for 1 h 37° C. The samples were then washed and mounted using Aquamount (Southern Biotech, Birmingham, Ala., USA).

human Bax ΔTM = target: T2, human Bax ΔTM (Homo sapiens, UniProt Q07812); assay: Binding of recombinant proteins (pull-down on anti-Bax beads); conditions: purified recombinant proteins, IFNγR2263-337 tagged with thioredoxin (rTrx)
T2 construct: Bax C terminal transmembrane truncated human Bax; His tag (on MBP) (N, cleaved yes); made in house
T2 sequence (Q07812 1-171 limits assumed, stated change not applied): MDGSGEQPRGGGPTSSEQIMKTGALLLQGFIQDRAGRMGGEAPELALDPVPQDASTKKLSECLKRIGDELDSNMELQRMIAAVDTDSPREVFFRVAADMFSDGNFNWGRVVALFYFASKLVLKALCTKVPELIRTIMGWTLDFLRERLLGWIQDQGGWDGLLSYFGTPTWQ
Text: Recombinant human Bax ΔTM (Bax C terminal transmembrane truncated human Bax) was produced by using pHMTc vector downstream of maltose binding protein (MBP), separated by the TEV protease site. Overexpressed MBP-Bax was purified through a maltose-binding column (NEB) and subsequently cleaved by TEV protease (Invitrogen), followed by Ni-affinity purification to remove the protease and the His-tagged MBP. IFNγR2 cytoplamic domain (amino acids 263 337) was fused with thioredoxin (rTrx) to increase the recovery rate from bacterial lysates. The production and the purification of this fusion protein were performed by Protein X Laboratory (San Diego, Calif.). Recombinant Bax (25 ng) was loaded onto Sepharose G beads pre-equilibrated with anti-Bax antibody (Bax B9, Santa Cruz) or pre-immune IgG (control IgG) at 4° C. for 2 h. The excess Bax molecules were washed 3 times with buffer (50 mM phosphate buffer, pH 7.4). Recombinant IFNγR2 (263-337)-rTrx (25 ng) was added to the beads preloaded with Bax and anti-Bax or control IgG. Beads and IFNγR2263-337-rTrx were incubated at 4° C. for 2 h. After the incubation, beads were extensively washed with the loading buffer (50 mM phosphate buffer, pH 7.4). Beads were boiled in Laemmli buffer, and the supernatant was collected as a sample. Samples were analyzed by western blot using anti IFNγR2 antibody (C20, Santa Cruz) and Bax (N20, Santa Cruz).

Mouse Bax = target: T3, Mouse Bax (Mus musculus, UniProt Q07813); assay: Yeast-based functional screening for Bax inhibitors; type: cell-based; conditions: yeast strain EGY48, galactose-inducible mouse Bax
T3 construct: expressed in transfected cells; host or cells: yeast strain EGY48, pGilda vector
T3 sequence (Q07813 whole entry): as the sequence (Q07813 whole entry) above
Method: The yeast strain EGY48 was used for the yeast functional screening for Bax inhibitors. Mouse Bax was expressed under a galactose-inducible promoter using pGilda vector as reported. Yeast expression libraries of cDNAs of mouse brain and a human cell line (HeLa) were prepared in pYES2 and pJG4-5 vectors, respectively.
To perform a yeast-based functional screen for Bax inhibitors, yeast expression cDNA libraries were generated from purified mRNAs of human HeLa cells and mouse brain tissue using pJG4-5 and pYES2 vectors, respectively. […] IFNγR2263-337 contains a Jak2-binding domain (amino acids 284-295). To determine the role of the Jak2-binding domain in Bax inhibition, two IFNγR2 mutants were generated (FIG. 1B) and tested for their anti-Bax activity in human cells as described below.

Molecule: KLVPT [control peptide]
- Suppression of oligomeric Aβ-induced neuronal loss (Nissl staining) [1]: failed to prevent neuronal cell death
- Prevention of oligomeric Aβ-induced PI uptake [1]: did not affect the level of PI uptake
- Cell permeability (green fluorescence of FITC-tagged peptide in neuronal cells) [2]: equally penetrated neuronal cells

Molecule: VPTLK (also: FITC tag, site not given here) [BIP]
- Suppression of oligomeric Aβ-induced neuronal loss (Nissl staining) [1]: significantly suppressed
- Prevention of oligomeric Aβ-induced PI uptake [1]: significantly prevented PI uptake
- Suppression of oligomeric Aβ-induced caspase-3 activation (immunoblot) ([3]; peptide co-applied with oligomeric Aβ): significantly suppressed
- Cell permeability (green fluorescence of FITC-tagged peptide in neuronal cells) [2]: equally penetrated neuronal cells
- Suppression of oligomeric Aβ-induced conformational change of Bax (6A7) (Bax; slices treated with oligomeric Aβ for 48 h): suppresses oligomeric Aβ-induced conformational change of Bax

Molecule: oligomeric Aβ: soluble oligomeric Aβ prepared from synthetic Aβ1-42 peptide (AnaSpec)
- Neuronal cell death induced by oligomeric Aβ in slice culture from bax−/− mice ([1]; bax−/− versus wild-type slices, 500 nM, 48 h): dramatically reduced
- PI uptake / number of PI-positive cells (neuronal cell death) ([1]; wild-type slices, 500 nM, 48 h of treatment): significantly increased
- Level of Bax ([3]; oligomeric Aβ-treated brain slices): not affected
- Expression of Bim ([3]; oligomeric Aβ-treated brain slices, time-dependent): increased the expression of Bim
- Level of Bim in hippocampus ([4]; 10 days after injection): dramatically increased
- Number of neurons containing the active form of Bax (6A7 antibody) ([4]; 10 days after injection): dramatically increased
- Neuronal cell death in hippocampus ([4]; WT mouse, 20 days after intrahippocampal injection): induced neuronal cell death
- Number of TUNEL-positive neurons ([4]; intrahippocampal injection): significantly increased
- Number of 6A7-positive cells (active form of Bax) (Bax; slice cultures, 24 h after treatment): significantly increased

B1: IFNγR2263-337: cytoplasmic domain of IFNγR2 (amino acids 263-337); recombinant form fused with thioredoxin (rTrx) (protein)
chain: AGACFFLVLKYRGLIKYWFHTPPSIPLQIEEYLKDPTQPILEALDKDSSPKDDVWDSVSIISFPEKEQEDVLQTL
modifications: left off: large carriers
- Direct interaction with BaxΔTM (human Bax ΔTM): confirmed
- Suppression of Bax in yeast (rescue of yeast growth from Bax expression) (Mouse Bax): Bax suppressor
